The experiment addresses T1, BCL6 (Homo sapiens, UniProt P41182).
T1 construct: Endogenous BCL6 was tagged with the 11-amino acid SmBiT through CRISPR/Cas9 gene editing; endogenous in cells; host or cells: Su-DHL-4 cells, CRISPR/Cas9 knock-in single cell clone
Description: HiBiT cellular degradation assay (Promega) in Su-DHL-4 cells. Format: cell-based. The following applies: concentration to reach 50% degradation; endogenous BCL6 tagged with SmBiT in Su-DHL-4 cells; 24 hr of compound treatment; relative to DMSO control. How it is done:
DC50 (concentration to reach 50% degradation) values were determined from a cellular degradation assay (HiBiT, Promega™) in Su-DHL-4 cells (Table 1). Endogenous BCL6 was tagged with the 11-amino acid SmBiT through CRISPR/Cas9 gene editing and single cell clone selection. After 24 hr of compound treatment, cells were lysed and incubated with LgBiT protein to reconstitute intact nanoluciferase. Substrate was then added and relative luciferase units were measured. Degradation levels for each treatment were taken as a percentage compared to the control, 100% DMSO (Prism).
Background: With HiBiT, luminescence reflects the tagged protein that the partner subunit can reach.

Molecules are shown by their SMILES.

As a reminder, the DC50 is the concentration giving 50% degradation. Lower therefore signals a more potent degrader.

`CNC(=O)COc1cc2cc3cc(c2n(C)c1=O)OCCCC1CN(CC(C)C1(F)F)c1ncc(Cl)c(n1)N3` (stereo not shown) [Compound 1] registered a 50% degradation concentration (DC50) of 1.9 nM. On to `C[C@H]1CN2C[C@@H](CCCOc3cc(cc4c3n(C)c(=O)c(=O)n4C[C@H]3C[C@@H](O)C3)Nc3nc2ncc3Cl)C1(F)F` [Compound 19-2, (1^3R, 1^5S)-2^5-chloro-1^4,1^4-difluoro-4^1-(((1s,3S)-3-hydroxycyclobutyl)methyl)-1^2,4^4-dimethyl-4^2,4^2,4^3,4^4-tetrahydro-5-oxa-3-aza-4(7,5)-quinoxalina-2(2,4)-pyrimidina-1 (1,3)-piperidinacyclooctaphane-4^2,4^3-dione], for which the DC50 was greater than 400 nM. `C[C@@H]1CN2C[C@H](CCCOc3cc(cc4c3n(C)c(=O)n4CCC(C)(C)O)Nc3nc2ncc3Cl)C1(F)F` [Compound 10, (1^3S,1^5R)-2^5-chloro-1^4,1^4-difluoro-4^1-(3-hydroxy-3-methylbutyl)-1^5,4^3-dimethyl-4^2, 4^3-dihydro-4^1H-5-oxa-3-aza-4(6,4)-benzo[d]imidazola-2(2,4)-pyrimidina-1 (1,3)-piperidinacyclooctaphan-4^2-one]: the DC50 was 11 nM. `C[C@H]1C[C@@H]2CN(C1)c1ncc(Cl)c(n1)Nc1cc(c3c(c1)n(CCC(C)(C)O)c(=O)n3C)OCCN2` [Compound 16, (1^3R, 1^5S)-2^5-Chloro-4^1-(3-hydroxy-3-methylbutyl)-1^5,4^3-dimethyl-4^2,4^3-dihydro-41 H-5-oxa-3,8-diaza-4(6,4)-benzo[d]imidazola-2(2,4)-pyrimidina-1 (1,3)-piperidinacyclooctaphan-4^2-one] displayed a half-maximal degradation concentration (DC50) of 2.4 nM. For the compound `C[C@@H]1CN2C[C@H](NCCOc3cc(cc4c3n(C)c(=O)n4CCC(C)(C)O)Nc3nc2ncc3Cl)C1(F)F` [Compound 14, (1^3S,1^5R)-2^5-chloro-1^4,1^4-difluoro-4^1-(3-hydroxy-3-methylbutyl)-1^5,4^3-dimethyl-4^2,4^3-dihydro-41 H-5-oxa-3,8-diaza-4(6,4)-benzo[d]imidazola-2(2,4)-pyrimidina-1 (1,3)-piperidinacyclooctaphan-4^2-one], the DC50 was determined as 2.9 nM. `C[C@H]1CN2C[C@@H](CCCOc3cc(cc4c3n(C)c(=O)n4CCC(C)(C)O)Nc3nc2ncc3Cl)C1(F)F` [Compound 11, (1^3R, 1^5S)-2^5-Chloro-1^4, 1^4-difluoro-4^1-(3-hydroxy-3-methylbutyl)-1^5,4^3-dimethyl-4^2,4^3-dihydro-4^1H-5-oxa-3-aza-4(6,4)-benzo[d]imidazola-2(2,4)-pyrimidina-1 (1,3)-piperidinacyclooctaphan-4^2-one] had a DC50 greater than 400 nM. Turning to `C[C@@H]1CN2C[C@H](CCCOc3cc(cc4c3n(C)c(=O)n4C)Nc3nc2ncc3Cl)C1(F)F` [Compound 29, (1^3S,1^5R)-2^5-chloro-1^4,1^4-difluoro-1^5,4^14^3-trimethyl-4^2,4^3-dihydro-4^1H-5-oxa-3-aza-4(6,4)-benzo[d]imidazola-2(2,4)-pyrimidina-1 (1,3)-piperidinacyclooctaphan-4^2-one], the half-maximal degradation concentration (DC50) was determined as 76 nM. With `C[C@H]1CN2C[C@@H](NCCOc3cc(cc4c3n(C)c(=O)n4CCC(C)(C)O)Nc3nc2ncc3Cl)C1(F)F` [Compound 35, (1^3R, 1^5S)-1^4,1^4,2^5-Trifluoro-4^1-(3-hydroxy-3-methylbutyl)-1^5,4^3-dimethyl-4^2,4^3-dihydro-4^1H-5-oxa-3,8-diaza-4(6,4)-benzo[d]imidazola-2(2,4)-pyrimidina-1 (1,3)-piperidinacyclooctaphan-4^2-one], the DC50 is greater than 400 nM. Next, `CNC(=O)COc1cc2cc3ccc2n(c1=O)CCCCO[C@@H]1C[C@H](C)CN(C1)c1ncc(Cl)c(n1)N3` [Compound B, reference compound]: greater than 400 nM; `C[C@H]1CN2C[C@@H](CCCOc3cc(cc4c3n(C)c(=O)n4C)Nc3nc2ncc3Cl)C1(F)F` [Compound 30, (1^3R155)-2^5-chloro-1^4,1^4-difluoro-1^5,4^14^3-trimethyl-4^2,4^3-dihydro-4^1H-5-oxa-3-aza-4(6,4)-benzo[d]imidazola-2(2,4)-pyrimidina-1 (1,3)-piperidinacyclooctaphan-4^2-one]: greater than 400 nM; `C[C@@H]1CN2C[C@H](NCCOc3cc(cc4c3n(C)c(=O)n4CCC(C)(C)O)Nc3ccnc2n3)C1(F)F` [Compound 39]: 96.7 nM. For `CNC(=O)COc1cc2cc3cc(c2n(C)c1=O)OCCO[C@H]1C[C@@H](C)CN(C1)c1ncc(Cl)c(n1)N3` [Compound 7, 2-(((1^3S, 1^5R)-2^5-chloro-1^5,4^1-dimethyl-4^2-oxo-4^1,4^2-dihydro-5,8-dioxa-3-aza-4(6,8)-quinolina-2(2,4)-pyrimidina-1 (1,3)-piperidinacyclooctaphane-4^3-yl)oxy)-N-methylacetamide], half-maximal degradation (DC50) was put at 121 nM. In turn, `C[C@H]1CN2C[C@@H](NCCOc3cc(cc4[nH]c(=O)n(C)c34)Nc3nc2ncc3F)C1(F)F` [Compound 37] returned a half-maximal degradation concentration (DC50) greater than 400 nM. The compound `C[C@H]1CN2C[C@@H](CCCOc3cc(cc4c3n(C)c(=O)c(=O)n4C[C@H]3C[C@H](O)C3)Nc3nc2ncc3Cl)C1(F)F` [Compound 19-1, (1^3R, 1^5S)-2^5-Chloro-1^4, 1^4-difluoro-4^1-(((1r, 3R)-3-hydroxycyclobutyl)methyl)-1^5, 4^4-dimethyl-4^1,4^2,4^3,4^4-tetrahydro-5-oxa-3-aza-4(7,5)-quinoxalina-2(2,4)-pyrimidina-1 (1,3)-piperidinacyclooctaphane-4^2,4^3-dione] returned a 50% degradation concentration (DC50) greater than 400 nM. Next, `CNC(=O)COc1cc2cc3cc(c2n(C)c1=O)OCCNC1CN(CC(C)C1(F)F)c1ncc(Cl)c(n1)N3` (stereo not shown) [Compound 3]: 0.36 nM. As for `C[C@@H]1CN2C[C@H](NCCOc3cc(cc4c3n(C)c(=O)n4CCC3(O)COC3)Nc3nc2ncc3Cl)C1(F)F` [Compound 45], it took 8.7 nM to reach half-maximal degradation (DC50). Turning to `C[C@H]1CN2C[C@@H](OCCOc3cc(cc4c3n(C)c(=O)n4CCC(C)(C)O)Nc3nc2ncc3Cl)C1(F)F` [Compound 34, (1^3R, 1^5S)-2^5-Chloro-1^4,1^4-difluoro-4^1-(3-hydroxy-3-methylbutyl)-1^5,4^3-dimethyl-4^2,4^3-dihydro-4 H-5,8-dioxa-3-aza-4(6,4)-benzo[d]imidazola-2(2,4)-pyrimidina-1 (1,3)-piperidinacyclooctaphan-4^2-one], the 50% degradation concentration (DC50) was greater than 400 nM.

`CNC(=O)COc1cc2cc3cc(c2n(C)c1=O)OCCOC1CC(C)CN(C1)c1ncc(Cl)c(n1)N3` (stereo not shown) [Compound 2] displayed a DC50 of 0.34 nM.

With `C[C@@H]1C[C@H]2CN(C1)c1ncc(Cl)c(n1)Nc1cc(c3c(c1)n(CCC(C)(C)O)c(=O)n3C)OCCO2` [Compound 13, (1^3S,1^5R)-2^5-chloro-4^1-(3-hydroxy-3-methylbutyl)-1^5,4^3-dimethyl-4^2,4^3-dihydro-4^1H-5,8-dioxa-3-aza-4(6,4)-benzo[d]imidazola-2(2,4)-pyrimidina-1 (1,3)-piperidinacyclooctaphan-4^2-one], the 50% degradation concentration (DC50) is greater than 400 nM. `C[C@@H]1CN2C[C@H](OCCOc3cc(cc4c3n(C)c(=O)n4CCC(C)(C)O)Nc3nc2ncc3Cl)C1(F)F` [Compound 33, (1^3S,1^5R)-2^5-Chloro-1^4, 1^4-difluoro-4^1-(3-hydroxy-3-methylbutyl)-1^5,4^3-dimethyl-4^2,4^3-dihydro-4^1H-5,8-dioxa-3-aza-4(6,4)-benzo[d]imidazola-2(2,4)-pyrimidina-1 (1,3)-piperidinacyclooctaphan-4^2-one] returned a DC50 of 1.9 nM.

For the compound `C[C@@H]1CN2C[C@H](NCCOc3cc(cc4c3n(C)c(=O)n4CC[S@@](C)(=N)=O)Nc3nc2ncc3Cl)C1(F)F` [Compound 44], the half-maximal degradation concentration (DC50) worked out at 18.9 nM. Compared with the last compound, the DC50 is about 9.9-fold higher.

Turning to `C[C@H]1C[C@@H]2CN(C1)c1ncc(Cl)c(n1)Nc1cc(c3c(c1)n(CCC(C)(C)O)c(=O)n3C)OCCO2` [Compound 12, (1^3R, 1^5S)-2^5-chloro-4^1-(3-hydroxy-3-methylbutyl)-1^5,4^3-dimethyl-4^2,4^3-dihydro-4^1H-5,8-dioxa-3-aza-4(6,4)-benzo[d]imidazola-2(2,4)-pyrimidina-1 (1,3)-piperidinacyclooctaphan-4^2-one], it took 2 nM to reach half-maximal degradation (DC50). The compound `C[C@@H]1CN2C[C@H](CCCOc3cc(cc4[nH]c(=O)c(=O)n(C)c34)Nc3nc2ncc3Cl)C1(F)F` [Compound 28, (1^3S,1^3R)-2^5-Chloro-1^4,1^4-difluoro-1^5,4^4-dimethyl-41, 42, 43,44-tetrahydro-5-oxa-3-aza-4(7,5)-quinoxalina-2(2,4)-pyrimidina-1 (1,3)-piperidinacyclooctaphane-4^2,4^3-dione] yielded a DC50 of 22 nM. Consider `C[C@@H]1CN2C[C@H](NCCOc3cc(cc4c3n(C)c(=O)n4CC[S@](C)(=N)=O)Nc3nc2ncc3Cl)C1(F)F` [Compound 43], for which it took 11.3 nM to reach half-maximal degradation (DC50). Turning to `C[C@@H]1CN2C[C@H](NCCOc3cc(cc4c3n(C)c(=O)n4C[C@@H](O)C(C)(C)O)Nc3nc2ncc3Cl)C1(F)F` [Compound 41], the DC50 was 1 nM. Against the preceding compound, the DC50 is about 11-fold lower.

`CNC(=O)COc1cc2cc3ccc2n(c1=O)CCCCO[C@H]1C[C@@H](C)CN(C1)c1ncc(Cl)c(n1)N3` [Compound A, reference compound] displayed a DC50 greater than 400 nM. In the case of `C[C@H]1CN2C[C@@H](NCCOc3cc(cc4[nH]c(=O)n(C)c34)Nc3nc2ncc3Cl)C1(F)F` [Compound 32, (1^3R, 1^5S)-2^5-chloro-1^4,1^4-difluoro-1^5,4^3-dimethyl-4^2,4^3-dihydro-4^1H-5-oxa-3,8-diaza-4(6,4)-benzo[d]imidazola-2(2,4)-pyrimidina-1 (1,3)-piperidinacyclooctaphan-4^2-one], the DC50 is greater than 400 nM. For `C[C@@H]1CN2C[C@H](NCCOc3cc(cc4c3n(C)c(=O)n4CCC(C)(O)CO)Nc3nc2ncc3Cl)C1(F)F` (stereo partly shown) [Compound 40], it took 3.7 nM to reach half-maximal degradation (DC50).

The values are drawn from patent US20260159527A1, “MACROCYCLIC BCL6 DEGRADERS” (DANA-FARBER CANCER INSTITUTE, INC., priority 2022, published 2026).
